The text below walks through data of US20260062420A1, “NOVEL DPP1 INHIBITORS AND USES THEREOF” (Insmed Incorporated, priority 2022, published 2026).

Read-outs that look alike come from different tables or passages of the source. Where only a bound is given, the exact number is not on record here.

For one assay, the target named is active mouse DPP1 enzyme (Mus musculus (Mouse), UniProt P97821). Kind of assay: Mouse DPP1 Enzyme IC50 Assay. The class given is biochemical. As to the method: Test articles were applied to active mouse DPP1 enzyme (R&D Systems; Minneapolis, MN) in Assay Buffer (50 mM MES pH 5.5, 50 mM NaCl, 5 mM DTT) in a total reaction volume of 125 μL. 25 μL of compound in Assay Buffer plus 5% DMSO was first added to 50 μL of active mouse DPP1 enzyme at a concentration of 62.5 pg/μL and allowed to pre-incubate for 10 minutes at 37° C. after which 50 μL of 1000 μM H-Gly-Arg-AMC substrate (Bachem; St. Torrance, CA) was added, giving final substrate concentration of 400 μM and a final DMSO concentration of 1%. Substrate cleavage was measured for 90 minutes at 37° C., with fluorescence at Excitation/Emission 350/450 nm measured every 5 minutes. DPP1 concentration was interpolated based on its activity relative to a standard curve of recombinant active mouse DPP1 enzyme. IC50 values for each compound were calculated via the XLFit (IDBS Version 5.3.1.3) Add-On to Microsoft Excel using the four parameter fit equation y=(A+((B−A)/(1+((C/x)^D)))), which appears as equation number 205 (4 Parameter Logistic Model or Sigmoidal Dose-Response Model) in XLFit. Default constraints were used for each Parameter. IC50 was defined as the compound concentration at which 50% of enzyme activity was inhibited when compared to the no-compound control.

The target in assay [1] is Recombinant human DPP1 enzyme (Homo sapiens (Human), UniProt P53634). Kind of assay: Human DPP1 Enzyme IC50 Assay. It is filed as biochemical. The protocol: Recombinant human DPP1 enzyme (R&D Systems; Minneapolis, MN) was first proteolytically processed into its mature form using recombinant human cathepsin L (R&D Systems) in a buffer consisting of 20 mM citric acid pH 4.5, 150 mM NaCl, 1 mM EDTA and 10 mM DTT. Test articles were applied to activated human DPP1 enzyme in Assay Buffer (25 mM MES pH 6.0, 50 mM NaCl, 5 mM DTT) in a total reaction volume of 125 μL. 25 μL of compound in Assay Buffer plus 5% DMSO was first added to 50 μL of activated human DPP1 enzyme at a concentration of 1 ng/μL and allowed to pre-incubate for 10 minutes at 37° C. after which 50 μL of 1000 μM H-Gly-Arg-AMC substrate (Bachem; St. Torrance, CA) was added, giving final substrate concentration of 400 μM and a final DMSO concentration of 1%. Substrate cleavage was measured for 90 minutes at 37° C., with fluorescence at Excitation/Emission 350/450 nm measured every 5 minutes. DPP1 concentration was interpolated based on its activity relative to a standard curve of activated human recombinant DPP1 enzyme. IC50 values for each compound were calculated via the XLFit (IDBS Version 5.3.1.3) Add-On to Microsoft Excel using the four parameter fit equation y={A+[(B−A)]/[1+((C/x)^D)]}, which appears as equation number 205 (4 Parameter Logistic Model or Sigmoidal Dose-Response Model) in XLFit. Default constraints were used for each Parameter.

Where [2] appears, read: mouse DPP1 enzyme, Table 16, read-out: IC50, nM, Mouse.
[3] abbreviates: human DPP1 enzyme, Table 16, read-out: IC50, nM, Human.
Where [4] appears, read: figure legends FIG. 12 and 13, read-out: IC50, in vitro inhibition of mouse DPP1.
[5] abbreviates: mouse DPP1 enzyme, H-Gly-Arg-AMC substrate 400 μM, Table 13, read-out: IC50.

Sequence of active mouse DPP1 enzyme (P97821 25-134): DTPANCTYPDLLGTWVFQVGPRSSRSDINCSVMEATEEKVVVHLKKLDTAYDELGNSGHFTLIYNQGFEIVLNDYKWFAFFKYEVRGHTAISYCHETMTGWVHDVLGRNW
Sequence of active mouse DPP1 enzyme (P97821 231-393): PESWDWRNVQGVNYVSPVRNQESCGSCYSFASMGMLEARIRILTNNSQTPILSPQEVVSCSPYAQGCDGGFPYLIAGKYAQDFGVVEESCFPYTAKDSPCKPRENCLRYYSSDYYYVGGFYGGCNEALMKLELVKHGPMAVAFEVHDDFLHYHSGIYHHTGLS
Sequence of active mouse DPP1 enzyme (P97821 394-462): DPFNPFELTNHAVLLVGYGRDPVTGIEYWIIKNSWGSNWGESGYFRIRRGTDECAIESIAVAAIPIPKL
Sequence of Recombinant human DPP1 enzyme (P53634 25-134): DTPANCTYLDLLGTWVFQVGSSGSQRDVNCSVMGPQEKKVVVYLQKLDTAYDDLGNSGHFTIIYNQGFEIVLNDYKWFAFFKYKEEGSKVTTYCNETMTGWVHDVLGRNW
Sequence of Recombinant human DPP1 enzyme (P53634 231-394): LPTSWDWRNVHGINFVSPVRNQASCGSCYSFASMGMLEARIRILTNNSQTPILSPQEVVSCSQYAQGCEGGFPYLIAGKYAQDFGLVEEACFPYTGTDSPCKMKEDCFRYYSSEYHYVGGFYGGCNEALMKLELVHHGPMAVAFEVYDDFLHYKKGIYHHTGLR
Sequence of Recombinant human DPP1 enzyme (P53634 395-463): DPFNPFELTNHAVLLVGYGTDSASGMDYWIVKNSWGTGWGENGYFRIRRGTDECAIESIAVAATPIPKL

Broadly, the IC50 is the concentration that inhibits the measured activity by half. In the case of `Cn1c(=O)oc2ccc(-c3ccc(C[C@@H](C#N)NC(=O)C4(CN)CCC4)cc3)cc21`, the IC50 was found to be 2770 nM at active mouse DPP1 enzyme (setting [2]) and 3660 nM in assay [1] (setting [3]).
The like results for `Cn1c(=O)oc2ccc(-c3ccc(C[C@@H](C#N)NS(=O)(=O)CCN)cc3)cc21` were, in that order, over 5000 nM and over 5000 nM.
The like results for `N#Cc1ccc(-c2ccc(C[C@@H](C#N)NC(=O)C3CNC3)c(F)c2)cc1` were, in that order, 1850 nM and 1560 nM.
Regarding `Cn1c(=O)oc2ccc(-c3ccc(CC(C#N)NC(=O)[C@H]4CCNC[C@H]4N)cc3)cc21` (stereo partly drawn), the IC50 at active mouse DPP1 enzyme (setting [2]) is 2430 nM; in assay [1] (setting [3]) it was 1310 nM.
Regarding `Cn1c(=O)oc2ccc(-c3ccc(C[C@@H](C#N)NC(=O)CC(N)C4CC4)cc3)cc21` (stereo partly drawn), the IC50 (at active mouse DPP1 enzyme (setting [2]); in assay [1] (setting [3])) was over 5000 nM in each case.
Turning to `N#Cc1ccc(-c2ccc(C[C@@H](C#N)NC(=O)[C@@H]3C[C@H]4COC[C@H]4N3)cc2)cc1` [IWD-004, (2S,3αR,6αS)—N—((S)-1-cyano-2-(4′-cyano-[1,1′-biphenyl]-4-yl)ethyl)hexahydro-1H-furo[3,4-b]pyrrole-2-carboxamide], the IC50 on active mouse DPP1 enzyme (setting [4]) was 209 nM; at active mouse DPP1 enzyme (setting [5]), 209 nM; in assay [1] (figure legends FIG. 14 and 15, read-out: IC50, in vitro inhibition of human DPP1), 245 nM.
`Cn1c(=O)oc2ccc(-c3ccc(C[C@@H](C#N)NC(=O)C4CNCCN4)cc3)cc21` (stereo partly drawn): the IC50 (on active mouse DPP1 enzyme (setting [2]); in assay [1] (setting [3])) was over 5000 nM throughout.
Turning to `Cn1c(=O)oc2ccc(-c3ccc(C[C@@H](C#N)NC(=O)[C@@H]4C[C@H]5C[C@H]5N4)cc3)cc21` [drawing 1152], the IC50 on active mouse DPP1 enzyme (setting [2]) is 19.6 nM; in assay [1] (setting [3]), 30.4 nM.
As to `Cn1c(=O)oc2ccc(-c3ccc(C[C@@H](C#N)NC(=O)C4CNCC(O)C4)cc3)cc21` (stereo partly drawn), the results for the IC50 (at active mouse DPP1 enzyme (setting [2]); in assay [1] (setting [3])) were 2170 nM and 2030 nM, respectively.
The like results for `N#Cc1ccc(-c2ccc(C[C@@H](C#N)NC(=O)C3CNC3)cc2)cc1` were, in that order, 4350 nM and over 5000 nM.
The like results for `Cn1c(=O)oc2ccc(-c3ccc(C[C@@H](C#N)NC(=O)C4C=CCNC4)cc3)cc21` (stereo partly drawn) were, in that order, over 5000 nM and over 5000 nM.
The like results for `N#Cc1ccc(-c2ccc(C[C@@H](C#N)NC(=O)[C@@H]3C[C@H]4C[C@H]4N3)cc2)cc1` were, in that order, 92.4 nM and 140 nM.
On to `Cn1c(=O)oc2ccc(-c3ccc(C[C@@H](C#N)NC(=O)[C@@H]4C[C@@H]5COC[C@@H]5N4)cc3)cc21` [drawing 1156], for which the IC50 in assay [1] (setting [3]) turned out to be 940 nM.
On to `Cn1c(=O)oc2ccc(-c3ccc(C[C@@H](C#N)NC(=O)C4CCNC4)cc3)cc21` (stereo partly drawn), for which the IC50 (at active mouse DPP1 enzyme (setting [2]); in assay [1] (setting [3])) was over 5000 nM in each case.
Consider `Cn1c(=O)oc2ccc(-c3ccc(C[C@@H](C#N)NC(=O)[C@@H]4C[C@H]5COC[C@H]5N4)cc3)cc21` [drawing 1154], for which the IC50 on active mouse DPP1 enzyme (setting [2]) was determined as 45.6 nM; in assay [1] (setting [3]), 69.2 nM.
The like results for `CO[C@H]1CNC[C@@H](C(=O)N[C@H](C#N)Cc2ccc(-c3ccc4oc(=O)n(C)c4c3)cc2)OC1` were, in that order, 583 nM and 745 nM.
On to `Cn1c(=O)oc2ccc(-c3ccc(C[C@@H](C#N)NS(N)(=O)=O)cc3)cc21`, for which the IC50 (on active mouse DPP1 enzyme (setting [2]); in assay [1] (setting [3])) was over 5000 nM throughout.
In the case of `Cn1c(=O)oc2ccc(-c3ccc(C[C@@H](C#N)NC(=O)[C@@H]4C[C@H]5OCC[C@H]5N4)cc3)cc21`, the IC50 (at active mouse DPP1 enzyme (setting [2]); in assay [1] (setting [3])) was over 5000 nM throughout.
As to `Cn1c(=O)oc2ccc(-c3ccc(CC(C#N)NC(=O)[C@@]4(C)CNCCO4)cc3)cc21` (stereo partly drawn), the IC50 in assay [1] (setting [3]) came out at 1040 nM.
As to `[2H]C([2H])([2H])n1c(=O)oc2ccc(-c3ccc(C[C@@H](C#N)NC(=O)C4CNC4)s3)cc21`, the IC50 in assay [1] (setting [3]) stood at 4940 nM.
Regarding `[2H]C([2H])([2H])n1c(=O)oc2ccc(-c3ccc(C[C@@H](C#N)NC(=O)C4CNC4)cc3)cc21`, the IC50 in assay [1] (setting [3]) came to 1510 nM.
In the case of `N#Cc1ccc(-c2ccc(C[C@@H](C#N)NC(=O)[C@@H]3C[C@@H]4COC[C@@H]4N3)s2)cc1`, the results for the IC50 (on active mouse DPP1 enzyme (setting [2]); in assay [1] (setting [3])) were 366 nM and 2270 nM, respectively.
The like results for `CN1COc2ccc(-c3ccc(C[C@@H](C#N)NS(=O)(=O)CCNC4CCCC4)cc3)cc21` were, in that order, over 5000 nM and over 5000 nM.
As to `Cn1c(=O)oc2ccc(-c3ccc(C[C@@H](C#N)NC(=O)C4CNCC45CCC5)cc3)cc21` (stereo partly drawn) [drawing 1229], the IC50 in assay [1] (setting [3]) is 1220 nM.
`Cn1c(=O)oc2ccc(-c3ccc(C[C@@H](C#N)NC(=O)C4CS(=O)(=O)CCN4)cc3)cc21` (stereo partly drawn): the IC50 (at active mouse DPP1 enzyme (setting [2]); in assay [1] (setting [3])) was over 5000 nM throughout.
Consider `N#Cc1ccc(-c2ccc(C[C@@H](C#N)NC(=O)C3CNC3)s2)cc1`, for which the IC50 (on active mouse DPP1 enzyme (setting [2]); in assay [1] (setting [3])) was over 5000 nM in each case.
On to `C=C1Oc2ccc(-c3ccc(C[C@@H](C#N)NC(=O)C4CNC[C@H](O)CO4)cc3)cc2N1C` (stereo partly drawn), for which the IC50 on active mouse DPP1 enzyme (setting [2]) amounted to 2 nM; in assay [1] (setting [3]), 2.3 nM.
Consider `Cn1c(=O)oc2ccc(-c3ccc(C[C@@H](C#N)NC(=O)CC4COCCN4)cc3)cc21` (stereo partly drawn), for which the IC50 (on active mouse DPP1 enzyme (setting [2]); in assay [1] (setting [3])) was over 5000 nM throughout.
Take `C=C1Oc2ccc(-c3ccc(C[C@@H](C#N)NC(=O)CC4(N)CCCS(=O)(=O)C4)cc3)cc2N1C` (stereo partly drawn): the IC50 in assay [1] (setting [3]) is over 5000 nM.
Consider `Cn1c(=O)oc2ccc(-c3ccc(C[C@@H](C#N)NC(=O)C4CC5CCN4CC5)cc3)cc21` (stereo partly drawn), for which the IC50 (on active mouse DPP1 enzyme (setting [2]); in assay [1] (setting [3])) was over 5000 nM in each case.
For `Cn1c(=O)oc2ccc(-c3ccc(C[C@@H](C#N)NC(=O)C4CC=CCNC4)cc3)cc21` (stereo partly drawn), the IC50 worked out at 1900 nM at active mouse DPP1 enzyme (setting [2]) and 1760 nM in assay [1] (setting [3]).
With `Cn1c(=O)oc2ccc(-c3ccc(C[C@@H](C#N)NC(=O)C4CCCCC4)cc3)cc21`, the IC50 (at active mouse DPP1 enzyme (setting [2]); in assay [1] (setting [3])) was over 5000 nM each time.
For the molecule `Cn1c(=O)oc2ccc(-c3ccc(C[C@@H](C#N)NC(=O)[C@@H]4CNCCCO4)cc3)cc21` [brensocatib, reference compound], the IC50 at active mouse DPP1 enzyme (setting [4]) and at active mouse DPP1 enzyme (setting [5]) was 24.3 nM each time.
With `Cn1c(=O)oc2ccc(-c3ccc(C[C@@H](C#N)NC(=O)[C@]4(C)CNCCO4)cc3)cc21`, in assay [1] (setting [3]), the IC50 is over 5000 nM.
As to `Cn1c(=O)oc2ccc(-c3ccc(CC(C#N)NC(=O)[C@H]4CCNC[C@@H]4N)cc3)cc21` (stereo partly drawn), the IC50 (on active mouse DPP1 enzyme (setting [2]); in assay [1] (setting [3])) was over 5000 nM in each case.
As to `Cn1c(=O)oc2ccc(-c3ccc(C[C@@H](C#N)NC(=O)C4CNC4)cc3)cc21`, the IC50 is 825 nM on active mouse DPP1 enzyme (setting [2]) and 1270 nM in assay [1] (setting [3]).
Consider `Cn1c(=O)oc2ccc(-c3ccc(C[C@@H](C#N)NC(=O)CC4(N)CCOC4)cc3)cc21` (stereo partly drawn), for which the results for the IC50 (at active mouse DPP1 enzyme (setting [2]); in assay [1] (setting [3])) were 3290 nM and 2540 nM, respectively.
For `Cn1c(=O)oc2ccc(-c3ccc(C[C@@H](C#N)NC(=O)[C@@H]4CNCCCO4)cc3)cc21` [drawing 1149], the IC50 on active mouse DPP1 enzyme (setting [2]) was determined as 27 nM.
Turning to `C[C@@H]1NCCC[C@@H]1C(=O)N[C@H](C#N)Cc1ccc(-c2ccc3oc(=O)n(C)c3c2)cc1`, in assay [1] (setting [3]), the IC50 is 1320 nM.
As to `Cn1c(=O)oc2ccc(-c3ccc(CC(C#N)NC(=O)C4CNC4)cc3)cc21` (stereo not drawn), the IC50 in assay [1] (setting [3]) is 1660 nM.
Still for that read-out and setting: for `C[C@H]1NCCC[C@H]1C(=O)N[C@H](C#N)Cc1ccc(-c2ccc3oc(=O)n(C)c3c2)cc1` the value was 4480 nM; for `N#Cc1ccc(-c2ccc(C[C@@H](C#N)NC(=O)C3C[C@@H]4COC[C@@H]4N3)cc2)cc1` (stereo partly drawn), 2610 nM.
On the same count and under the same terms, the figure for `[2H]C([2H])([2H])n1c(=O)oc2ccc(-c3ccc(C[C@@H](C#N)NC(=O)[C@@H]4C[C@@H]5COC[C@@H]5N4)s3)cc21` is 664 nM.
Turning to `Cn1c(=O)oc2ccc(-c3ccc(C[C@@H](C#N)NC(=O)[C@@H]4CNCCCO4)c(F)c3)cc21`, the IC50 at active mouse DPP1 enzyme (setting [2]) stood at 8.1 nM.
